Data on 1 molecule can be found in article PMC11080019, “Synthesis and Biological Profiling of Quinolino-Fused 7-Deazapurine Nucleosides” (ACS Omega, 2024).

Each structure is given as a SMILES string. Structures can show the parent of a compound that is named as a salt.

The target in this experiment is T1, T7 RNA polymerase (Escherichia phage T7, UniProt P00573).
T1 construct: purchased New England Biolabs
Kind of experiment: In vitro transcription (IVT) with T7 RNA polymerase, 35DNA_A7 template. The class given is biochemical. As to conditions: 7.5 mM NTPs, 37 °C, 16 h, 35-mer RNA with seven modifications. As to the method:
A^QTP was then used as a substrate for the T7 RNA polymerase in the in vitro transcription (IVT) experiments.[30] We used 35DNA_A7 DNA template encoding for 35-mer RNA containing seven A^Q modifications (Table 4). We used the T7 High Yield RNA Synthesis Kit with a high concentration of NTPs (7.5 mM each) but without any further additives. The reaction time at 37 °C was 16 h. The positive control experiment was performed with all four natural NTPs giving nonmodified transcript 35RNA_A7 (Figure 2, lane 2). The negative control contained only the natural CTP, GTP, and UTP in the absence of ATP (Figure 2, lane 3). The real IVT experiment was performed with A^QTP and three natural NTPs (Figure 2, lane 4). The transcription products were visualized by denaturing 20% denaturing PAGE (Figure 2) and characterized by LC–MS (see Figures S1 and S2 in the SI). […]
Aliquots of the first three reactions (50 ng) were separated by denaturating PAGE (20%) with urea at 23 mV for 1 h and visualized by fluorescence imaging.
Aliquots of the positive control (35RNA_A7) and the modified RNA (35RNA_A^Q7) were analyzed by UPLC-ESI-MS confirming the full transcription without any misincorporation (see Figures S1 and S2 in Supporting Information).

T1 sequence (P00573 whole entry): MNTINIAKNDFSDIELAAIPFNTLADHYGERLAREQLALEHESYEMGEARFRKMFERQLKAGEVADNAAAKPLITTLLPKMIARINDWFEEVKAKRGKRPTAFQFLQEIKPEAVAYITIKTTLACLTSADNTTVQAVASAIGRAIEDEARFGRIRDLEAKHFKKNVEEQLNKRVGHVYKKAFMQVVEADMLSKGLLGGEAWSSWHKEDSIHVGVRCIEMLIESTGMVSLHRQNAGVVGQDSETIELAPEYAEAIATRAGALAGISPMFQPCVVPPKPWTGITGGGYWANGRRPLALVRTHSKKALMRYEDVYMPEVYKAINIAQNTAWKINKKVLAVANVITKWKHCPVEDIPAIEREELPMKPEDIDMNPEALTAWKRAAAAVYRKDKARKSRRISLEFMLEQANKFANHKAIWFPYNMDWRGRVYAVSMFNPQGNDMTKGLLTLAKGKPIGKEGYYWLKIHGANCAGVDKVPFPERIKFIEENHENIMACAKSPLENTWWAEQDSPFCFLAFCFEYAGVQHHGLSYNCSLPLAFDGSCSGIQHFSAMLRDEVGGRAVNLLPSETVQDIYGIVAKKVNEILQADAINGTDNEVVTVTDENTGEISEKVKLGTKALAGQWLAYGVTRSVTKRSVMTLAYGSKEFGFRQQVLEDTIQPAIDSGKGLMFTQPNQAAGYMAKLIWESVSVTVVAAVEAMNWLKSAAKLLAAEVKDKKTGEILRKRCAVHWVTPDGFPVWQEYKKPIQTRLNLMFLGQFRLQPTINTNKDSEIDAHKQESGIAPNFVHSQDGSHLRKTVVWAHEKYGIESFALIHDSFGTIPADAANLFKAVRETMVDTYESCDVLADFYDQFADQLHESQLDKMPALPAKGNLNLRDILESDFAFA

As for `Nc1ncnc2c1c1c3cccnc3ccc1n2[C@@H]1O[C@H](COP(=O)(O)OP(=O)(O)OP(=O)(O)O)[C@@H](O)[C@H]1O` [A^QTP, 11-Amino-7-(β-D-ribofuranosyl)pyrimido[5′,4′:4,5]pyrrolo[3,2-f]quinoline 5′-O-Triphosphate Bistriethylammonium Salt], the “substrate activity for T7 RNA polymerase in in vitro transcription (in words)” value was “moderately efficient substrate”.
